Results from PMC7284870, “Antimicrobial Peptides from Rat-Tailed Maggots of the Drone Fly Eristalis tenax Show Potent Activity against Multidrug-Resistant Gram-Negative Bacteria” (Microorganisms, 2020).
Values after ≈ are worked out from the molar mass of the structure shown. Where two headings read alike, the source gives them in different places. No end group written: not given here.

Experiments:
[1] = system: Gram-negative clinical isolates; type: cell-based
Summary of the method: (§1)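 Broth microdilution in cation-adjusted Mueller–Hinton broth at 37 °C, with 18 h cultures diluted to 5 × 10^5 cells/mL and final peptide concentrations of 1024–0.03125 µg/mL. Growth was scored visually and by OD600. MIC is the lowest concentration with no growth; medium was optionally supplemented with 150 mM NaCl or 1.25 mM CaCl2.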

[2] = system: P. aeruginosa clinical isolates (2); type: cell-based, Pseudomonas aeruginosa
Method: (§2) The strains that were used in this study (Table 2 and Table S1) were cultivated at 37 °C in cation-adjusted Mueller–Hinton broth (CAMB) in Erlenmeyer flasks, or on the same medium with agar in Petri dishes. Exceptionally, Mycobacterium smegmatis was cultivated at 37 °C in brain heart infusion (BHI) medium that was supplemented with 1% Tween-80 in Erlenmeyer flasks, or on the same medium lacking detergent but with agar in Petri dishes. Strains listed with Robert Koch Institute (RKI) strain numbers are clinical isolates from the RKI strain collection originating from hospitalized patients in Germany. The remaining strains originated from the Sanofi strain collection and they were originally purchased from the American Type Culture Collection or the German Collection of Microorganisms and Cell Cultures. Meropenem/colistin-resistant strains were maintained, as described above, with the appropriate antibiotic added at levels below the minimal inhibitory concentration (MIC).
The MIC values were determined in 384-well microtiter plates with an assay volume of 20 µL. Immediately before each assay, the cultures of test organisms (bacteria grown for 18 h, Candida albicans and M. smegmatis grown for 48 h) were diluted with the appropriate medium to a density of 1 × 10^6 cells/mL (C. albicans), 1 × 10^5 cells/mL (M. smegmatis) or 5 × 10^5 cells per mL (other species). […] We transferred 2-µL aliquots from this dilution series to new 384-well microtiter plates while using a CyBio-Well 384-channel automated pipettor (Analytic Jena, Jena, Germany) and added 18 µL of the diluted suspension of each test species using a Viafill reagent dispenser (Integra), thus reducing the final peptide concentration 10-fold to the range 1024–0.03125 µg/mL. […] The growth of M. smegmatis was measured using the BacTiter-Glo luminescence test system (Promega, Madison, WI, USA). The growth of the other species was determined by visual inspection of the microtiter plate and turbidimetry based on the optical density at 600 nm (OD600). […]

human erythrocytes = assay: Hemolysis of human erythrocytes; conditions: hRBC in PBS, 3 h, 37 °C, A540; highest tested 1024 µg/mL
Method: Fresh citrated stabilized human whole blood was centrifuged at 500× g for 5 min. and the cell sediment was washed three times with phosphate buffered saline (PBS) before resuspending in PBS (50-fold the initial sample volume) to generate the human red blood cell (hRBC) suspension. The peptides were dissolved in sterile water at a concentration of 10.24 mg/mL and a dilution series was prepared in a 384-well microtiter plate, as above, to achieve the concentration range 10,240–0.3125 µg/mL in a volume of 50 µL. Triton X-100 (positive control) was diluted in sterile water to cover the concentration range 20–0.02%. We transferred 5-µL aliquots to new 384-well microtiter plates using the CyBio-Well 384-channel automated pipettor and added 45 µL of the hRBC suspension while using the Viafill reagent dispenser to achieve the final peptide concentration range 1024–0.031 µg/mL. After incubation at 37 °C. for 3 h, the plate was centrifuged and 20 μL of the supernatant from each well was transferred to a new microtiter plate. The quantity of released hemoglobin was determined by measuring the absorbance at 540 nm using a Lumistar plate reader (BMG Labtech, Ortenberg, Germany). The percent hemolysis was calculated by comparing to a control without peptide (no hemolysis) and a control with 2% Triton X-100 (100% hemolysis).

Canida albicans FH2173 = type: cell-based, Candida albicans; conditions: CAMB, 24 h, 37 °C, n = 4
Summary of the method: as §1

[3] = system: Listeria monocytogenes DSM 20600; type: cell-based; conditions: CAMB, 18 h, 37 °C, n = 4
Summary of the method: as §1

[4] = system: Enterococcus faecium DSM 17050; type: cell-based; conditions: CAMB, 18 h, 37 °C, n = 4
Summary of the method: as §1

[5] = system: Mycobacterium smegmatis ATCC 607; type: cell-based; conditions: BHI, 48 h, 37 °C, BacTiter-Glo, n = 4
[6] = system: Staphylococcus epidermidis ATCC 35984; type: cell-based; conditions: CAMB, 18 h, 37 °C, n = 4
Summary of the method: as §1

[7] = system: Proteus mirabilis DSM 4479; type: cell-based; conditions: CAMB, 18 h, 37 °C, n = 4
Summary of the method: as §1

P. aeruginosa ATCC 27853 = assay: Checkerboard assay EtDip with colistin; type: cell-based, Pseudomonas aeruginosa; conditions: CAMB and + 150 mM NaCl; not in the presence of CaCl2
Method: (§3) The interactions between pairs of compounds were analyzed using checkerboard assays in a 384-well microtiter plate with an assay volume of 20 µL. Immediately before the test runs, the bacterial cultures were diluted in CAMB to a density of 5 × 10^5 cells/mL. The two compounds for combinatorial testing were arrayed as 10-fold concentrated serial dilutions with respect to the final concentration, vertically for one compound and horizontally for the other, in the same 384-well microplate. Subsequently, we transferred 2-µL aliquots to new 384-well microtiter plates, and growth inhibition in each well was determined, as described for the MIC values above. Fractional inhibitory concentration (FIC) and FICindex values for each combination were calculated using the following formulae, where a
(§4) FICindex ≤0.5 indicates synergy and a FICindex >4 indicates antagonism.
(§5) FIC for compound A = MIC of compound A in combination/MIC of compound A
(§6) FIC for compound B = MIC of compound B in combination/MIC of compound B

reference strains = assay: MIC, several reference strains; type: cell-based; conditions: reference strains of Table 2
Method: as §2
(§7) The MIC values were determined in 384-well microtiter plates with an assay volume of 20 µL. […] The growth of M. smegmatis was measured using the BacTiter-Glo luminescence test system (Promega, Madison, WI, USA). The growth of the other species was determined by visual inspection of the microtiter plate and turbidimetry based on the optical density at 600 nm (OD600). […]

E. coli ATCC25922 = assay: Checkerboard assay EtDip with colistin; type: cell-based, Escherichia coli; conditions: CAMB, + 150 mM NaCl, + 1.25 mM CaCl2; FICindex ≤0.5 = synergy
Method: as §3, §4, §5, §6

[8] = system: Stenotrophomonas maltophilia RKI 136/09; type: cell-based
Summary of the method: as §1

E. coli RKI 6A-6 = assay: microbe, parasite or virus in culture; type: cell-based, Escherichia coli
Summary of the method: as §1

K. pneumoniae RKI 268/15 = type: cell-based, Klebsiella pneumoniae
Method: as §2
(§8) The MIC values were determined in 384-well microtiter plates with an assay volume of 20 µL. Immediately before each assay, the cultures of test organisms (bacteria grown for 18 h, Candida albicans and M. smegmatis grown for 48 h) were diluted with the appropriate medium to a density of 1 × 10^6 cells/mL (C. albicans), 1 × 10^5 cells/mL (M. smegmatis) or 5 × 10^5 cells per mL (other species). […] We transferred 2-µL aliquots from this dilution series to new 384-well microtiter plates while using a CyBio-Well 384-channel automated pipettor (Analytic Jena, Jena, Germany) and added 18 µL of the diluted suspension of each test species using a Viafill reagent dispenser (Integra), thus reducing the final peptide concentration 10-fold to the range 1024–0.03125 µg/mL. […] The growth of M. smegmatis was measured using the BacTiter-Glo luminescence test system (Promega, Madison, WI, USA). The growth of the other species was determined by visual inspection of the microtiter plate and turbidimetry based on the optical density at 600 nm (OD600). The MIC was defined as the peptide concentration at which no bacterial growth was observed. We supplemented the test medium with either 150 mM NaCl or 1.25 mM CaCl2 to represent monovalent and divalent cations to simulate physiological conditions.

K. pneumoniae RKI 68/16 = type: cell-based, Klebsiella pneumoniae
Method: as §2, §8

[9] = system: Seratia fonticola clinical isolate (1); assay: MIC, clinical isolates; type: cell-based, Serratia fonticola; conditions: Table S1, RKI 517/16
Method: as §2, §7

GFLKKIGKKLEGAVQRTRDATIQTIAVAQAAANVAATAKQ-NH2 [EtCec1-NH2]
MIC ([1]; 18 h): ≥ 64 µg/mL | MIC ([2]; clinical isolates (2, 18 h)): 128 µg/mL

QFNMQGGGSPRQGFDVNANARFPIWQSQNARNSVHGTASYAQHLGGPYGNSRPNFGGGLQFT [EtDip, diptericin-like peptide of Eristalis tenax]
minimal hemolytic concentration (human erythrocytes): > 1024 µg/mL | MIC (Canida albicans FH2173): >1024 µg/mL | MIC [3]: >1024 µg/mL | MIC [4]: >1024 µg/mL | MIC [5]: 64 µg/mL | MIC [6]: >1024 µg/mL | MIC [7]: >1024 µg/mL | interaction with colistin (FICindex) (P. aeruginosa ATCC 27853): Synergistic interactions | activity against the test strains (reference strains): no activity | interaction with colistin (FICindex) (E. coli ATCC25922): Synergistic interactions

GWLRDFGKRIERTGQNIRDATIQTIGIAQEAANVAATLK-NH2 [EtCec2-NH2]
minimal hemolytic concentration (human erythrocytes): 512 µg/mL | MIC (Canida albicans FH2173): >1024 µg/mL | MIC [3]: >1024 µg/mL | MIC [4]: >1024 µg/mL | MIC ([8]; CAMB adjusted to 150 mM NaCl, n=3): 512 µg/mL | MIC ([8]; Table 4, CAMB, n=3): 256 µg/mL | MIC [5]: >1024 µg/mL | MIC [6]: >1024 µg/mL | MIC [7]: >1024 µg/mL | MIC ([1]; isolates of M. morganii and S. fonticola): > 128 µg/mL | MIC (E. coli RKI 6A-6; Table 4, CAMB, n=3): 64 µg/mL | MIC (K. pneumoniae RKI 268/15; Table 4, CAMB, n=3): 64 µg/mL | MIC (K. pneumoniae RKI 68/16; Table 4, CAMB, n=3): 128 µg/mL

C[C@@H](O)[C@H]1C(=O)N2C(C(=O)O)=C(S[C@@H]3CN[C@H](C(=O)N(C)C)C3)[C@H](C)[C@H]12 [MEM, meropenem]
MIC ([8]; Table S1, RKI 136/09): > 64 µg/mL | MIC (E. coli RKI 6A-6; Escherichia coli, RKI6A6, Table S1, RKI 6A-6, read-out: MIC): ≤ 0.5 µg/mL | MIC [9]: 32 µg/mL (≈ 83.4 µM) | MIC ([2]; Table S1, RKI 93/12): 16 µg/mL (≈ 41.7 µM) | MIC ([2]; Table S1, RKI 628/16): 8 µg/mL (≈ 20.9 µM) | MIC (K. pneumoniae RKI 268/15; Table S1, RKI 268/15): 16 µg/mL (≈ 41.7 µM) | MIC (K. pneumoniae RKI 68/16; Table S1, RKI 68/16): ≤ 0.5 µg/mL
